Where a name gives a salt, the structure may show the parent alone.
Tests used:
[1] = molecular target: rhTDO (recombinant human TDO) (Homo sapiens, UniProt P48775); test: Enzyme assay using rhTDO (rate of kynurenine production); assay type: biochemical; settings: 2 h; final concentration of the compound 10 μM; rate relative to reaction without compound; read-out: rhTDO-mediated kynurenine production
In short: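 Kynurenine output, as percent of untreated control after background subtraction, read at 490 nm with p-dimethylbenzaldehyde following TCA quench and 15 min heating at 50 °C. Reaction: rhTDO with compound, 10 min preincubation then 120 min at 37 °C, started by 20 mM tryptophan stock, in phosphate/ascorbate/methylene blue/catalase.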

TDO in A172 cells = molecular target: T1, TDO in A172 cells (Homo sapiens, UniProt P48775); test: TDO cell-based assay, kynurenine production in A172 cells; settings: A 172; final concentration of the compound 10 μM; rate relative to culture without compound
T1 construct: endogenous in cells; host or cells: A172 cells
In short: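 A172 cells were preincubated with compound for 1 h, then given L-tryptophan (final 524 μM) for 24 h at 37 °C. Kynurenine was read at 460 nm after p-dimethylbenzaldehyde/TCA reagent, background-subtracted, and expressed as % of no-compound production.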

IDO in A431 cells = molecular target: T2, IDO in A431 cells (Homo sapiens, UniProt P14902); test: IDO cell-based assay, kynurenine production in IFN-γ stimulated A431 cells; settings: A-431, 24 h; final concentration of the compound 10 μM; rate relative to culture without compound
T2 construct: endogenous in cells; host or cells: A431 cells, IFN-γ stimulated
In short: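 Kynurenine output was read by absorbance at 460 nm after p-dimethylbenzaldehyde/trichloroacetic acid reagent, background-corrected, and given as % of untreated wells. Before the read, cells in 178 μM L-tryptophan medium had 1 h compound preincubation, then 24 h IFN-γ stimulation (added as 100 ng/mL dilution).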

[2] = molecular target: rhIDO (recombinant human IDO) (Homo sapiens, UniProt P14902); test: Enzyme assay using rhIDO (rate of kynurenine production); assay type: biochemical; settings: 2 h; final concentration of the compound 10 μM; rate relative to reaction without compound; read-out: rhIDO-mediated kynurenine production
In short: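 Kynurenine formation, expressed as % of uncompounded reaction after background subtraction, was read by absorbance at 490 nm following TCA stop, 50 °C hydrolysis and Ehrlich-type p-dimethylbenzaldehyde staining. Recombinant human IDO with ascorbate/methylene blue/catalase was pre-exposed to compound 10 min, then reacted 120 min at 37 °C after adding 2 mM tryptophan stock.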

Chain of rhIDO (recombinant human IDO) (P14902 whole entry): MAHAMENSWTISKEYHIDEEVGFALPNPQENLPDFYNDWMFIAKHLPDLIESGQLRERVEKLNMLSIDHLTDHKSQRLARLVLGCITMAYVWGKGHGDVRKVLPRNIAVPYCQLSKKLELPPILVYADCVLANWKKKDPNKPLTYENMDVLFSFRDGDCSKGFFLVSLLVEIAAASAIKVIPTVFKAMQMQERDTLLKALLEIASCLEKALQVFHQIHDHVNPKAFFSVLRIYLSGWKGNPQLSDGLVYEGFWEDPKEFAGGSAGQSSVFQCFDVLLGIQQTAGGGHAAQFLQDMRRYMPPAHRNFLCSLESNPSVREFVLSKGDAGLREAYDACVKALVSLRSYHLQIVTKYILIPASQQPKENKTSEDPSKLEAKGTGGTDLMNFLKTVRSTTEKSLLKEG
T2 sequence (P14902 whole entry): as above
Chain of rhTDO (recombinant human TDO) (P48775 whole entry): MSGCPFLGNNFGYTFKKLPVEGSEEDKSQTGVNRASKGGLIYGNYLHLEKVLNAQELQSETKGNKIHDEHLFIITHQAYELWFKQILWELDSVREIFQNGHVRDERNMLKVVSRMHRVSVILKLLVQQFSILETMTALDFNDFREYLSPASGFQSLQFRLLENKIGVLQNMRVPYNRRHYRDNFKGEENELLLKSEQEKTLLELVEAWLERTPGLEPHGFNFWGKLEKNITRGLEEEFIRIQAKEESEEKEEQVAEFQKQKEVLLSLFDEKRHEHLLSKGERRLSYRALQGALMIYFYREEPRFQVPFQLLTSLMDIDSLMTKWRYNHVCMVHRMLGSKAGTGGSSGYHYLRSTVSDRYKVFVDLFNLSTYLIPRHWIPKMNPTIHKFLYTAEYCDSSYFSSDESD
T1 sequence (P48775 whole entry): as above

Compound | remaining activity at 10 µM [1] [%] | remaining activity at 10 µM (TDO in A172 cells) [%] | remaining activity at 10 µM (IDO in A431 cells) [%] | remaining activity at 10 µM [2] [%]
CNC(=O)Cc1ccccc1CSC(=N)N [Compound 62, 2-(2-(Methylamino)-2-oxoethyl)benzyl carbamimidothioate hydrobromide] | 21 | 56 | 86 | 58
c1ccc(CS/C(=N/C2CCCCC2)NC2CCCCC2)c(CS/C(=N/C2CCCCC2)NC2CCCCC2)c1 [Compound 58, 1,2-Phenylenebis(methylene) (E,E)-bis(N,N′-dicyclohexylcarbamimidothioate) dihydrobromide] | 83 | 9 | 1 | 73
Brc1cccc(CCN2CN=C(SCc3ccccc3CSC3=NCN(CCc4cccc(Br)c4)CN3)NC2)c1 [Compound 19, 1,2-bis(((5-(3-bromophenethyl)-1,4,5,6-tetrahydro-1,3,5-triazin-2-yl)thio)methyl)benzene] | 46 | 1 | 5 | 43
Clc1ccc(CCN2CN=C(SCc3cc(Cl)c(Cl)cc3CSC3=NCN(CCc4ccc(Cl)c(Cl)c4)CN3)NC2)cc1Cl [Compound 38, 6,6′-(((4,5-Dichloro-1,2-phenylene)bis(methylene))bis(sulfanediyl))bis(3-(3,4-dichlorophenethyl)-1,2,3,4-tetrahydro-1,3,5-triazine)] | 37 | -1 | 2 | 16
N=C(N)SCc1ccc(C(F)(F)F)cc1CSC(=N)N [Compound 46, dihydrobromide] | 14 | 24 | 10 | 3
N/C(=N\c1ccc(Cl)cc1)SCc1cc(F)c(F)cc1CS/C(N)=N/c1ccc(Cl)cc1 [Compound 132, (4,5-Difluoro-1,2-phenylene)bis(methylene) (E,E)-bis(N′-(4-chlorophenyl)carbamimidothioate) dihydrobromide] | 5 | 5 | 11 | -2
N/C(=N\c1ccc(Cl)cc1)SCc1cc(Cl)c(Cl)cc1CS/C(N)=N/c1ccc(Cl)cc1 [Compound 123, (4,5-Dichloro-1,2-phenylene)bis(methylene) (E,E)-bis(N′-(4-chlorophenyl)carbamimidothioate) dihydrobromide] | 10 | 4 | 12 | -2
N=C(N)SCc1cc(Br)ccc1C(=O)NCc1ccc(Br)cc1 [Compound 97, 5-Bromo-2-((4-bromobenzyl)carbamoyl)benzyl carbamimidothioate hydrobromide] | 16 | 37 | 83 | 85
Fc1cccc(CN2CN=C(SCc3ccccc3CSC3=NCN(Cc4cccc(F)c4)CN3)NC2)c1 [Compound 45] | 33 | 0 | 13 | 65
N=C(N)SCc1cc(Br)ccc1C(=O)NCc1ccc(Cl)c(Cl)c1 [Compound 94, 5-Bromo-2-((3,4-dichlorobenzyl)carbamoyl)benzyl carbamimidothioate hydrobromide] | 15 | 59 | 158 | 80
COCCNC(=O)c1ccc(Br)cc1CSC(=N)N [Compound 115, 5-Bromo-2-((2-methoxyethyl)carbamoyl)benzyl carbamimidothioate hydrobromide] | 63 | 71 | 121 | 91
Brc1ccc(CS/C(=N/C2CCCCC2)NC2CCCCC2)c(CS/C(=N/C2CCCCC2)NC2CCCCC2)c1 [Compound 57, (4-Bromo-1,2-phenylene)bis(methylene) (E,E)-bis(N,N′-dicyclohexylcarbamimidothioate) dihydrobromide] | 80 | 12 | 3 | 83
Cc1ccc(C)c(CCN2CN=C(SCc3ccccc3CSC3=NCN(CCc4cc(C)ccc4C)CN3)NC2)c1 [Compound 24, 1,2-bis(((5-(2,5-dimethylphenethyl)-1,4,5,6-tetrahydro-1,3,5-triazin-2-yl)thio)methyl)benzene] | 25 | -2 | 4 | 27
CNC(=O)c1ccc(C#N)cc1CS/C(N)=N/c1ccc(Br)cc1 [Compound 81, 5-Cyano-2-(methylcarbamoyl)benzyl (E)-N′-(4-bromophenyl)carbamimidothioate hydrobromide] | 121 | 89 | 78 | 81
N=C(N)SCc1ccc2ccccc2c1CSC(=N)N [Compound 3, naphthalene-1,2-diylbis(methylene) dicarbamimidothioate dihydrobromide] | 30 | 78 | 7 | 6
CNC(=O)c1ccccc1CSC(=N)N [Compound 92, 2-(Methylcarbamoyl)benzyl carbamimidothioate hydrobromide] | 68 | 81 | 112 | 90
FC(F)(F)c1ccc(CCN2CN=C(SCc3ccccc3CSC3=NCN(CCc4ccc(C(F)(F)F)cc4)CN3)NC2)cc1 [Compound 142, 1,2-Bis (((5-(4-(Trifluoromethyl)phenethyl)-1,4,5,6-tetrahydro-1,3,5-triazin-2-yl)thio)methyl)benzene] | 18 | 6 | 16 | 43
Fc1ccc(CSC2=NCN(CCc3ccc(Cl)c(Cl)c3)CN2)c(CSC2=NCN(CCc3ccc(Cl)c(Cl)c3)CN2)c1 [Compound 133, 6,6′-(((4-Fluoro-1,2-phenylene)bis(methylene))bis(sulfanediyl))bis(3-(3,4-dichlorophenethyl)-1,2,3,4-tetrahydro-1,3,5-triazine)] | 10 | 6 | 13 | 1
N=C(N)SCc1ccccc1CC(=O)NCC1CCCCC1 [Compound 65, 2-(2-((Cyclohexylmethyl)amino)-2-oxoethyl)benzyl carbamimidothioate hydrobromide] | 76 | 94 | 104 | 89
N=C(N)SCc1cc(Br)ccc1C(=O)NCc1ccc(F)cc1 [Compound 86, 5-Bromo-2-((4-fluorobenzyl)carbamoyl)benzyl carbamimidothioate hydrobromide] | 46 | 36 | 109 | 92
